Laboratory results: ChEMBL document CHEMBL1146672, “Discovery and SAR development of 2-(phenylamino) imidazolines as prostacyclin receptor antagonists [corrected]” (Bioorg Med Chem Lett, 2004)

system: Rattus norvegicus; test: Effective dose was determined against carrageenan-induced paw hyperalgesia in the rat on peroral administration; type: functional; conditions: po

`CC(C)Oc1ccc(Cc2ccc(NC3=NCCN3)cc2)cc1` was tested. Which ED50 did it give?
Its ED50 is 18 mg/kg.

system: Rattus norvegicus; test: Effective dose was determined against carrageenan-induced paw hyperalgesia in the rat on i.v. administration; type: functional; conditions: iv

`CC(C)Oc1ccc(Cc2ccc(NC3=NCCN3)cc2)cc1` was tested. Which ED50 did it give?
Its ED50 is 2.8 mg/kg.

system: SH-SY5Y; test: Compound was tested for antagonism of carbaprostacyclin-stimulated cAMP accumulation in human SH-SY5Y neuroblastoma cells; type: functional; conditions: not given

For `c1cc(NC2=NCCN2)ccc1Cc1ccc(OCC2CCOCC2)cc1`, which pKB is on record?
Its pKB is 8.5.

For `CCCCCCOc1ccc(Cc2ccc(NC3=NCCN3)cc2)cc1`, which pKB is on record?
Its pKB is 8.2.

Which pKB does the source give for `c1ccc(COc2ccc(Cc3ccc(NC4=NCCN4)cc3)cc2)cc1` here?
Its pKB is 7.7.

`c1cc(NC2=NCCN2)ccc1Cc1ccc(OC2CCCC2)cc1` was tested. Which pKB did it give?
Its pKB is 8.9.

With `c1cc(NC2=NCCN2)ccc1Cc1ccc(OC2CCCCC2)cc1` as the compound, how does the pKB read?
The pKB was 8.6.

With `FC(F)(F)COc1ccc(Cc2ccc(NC3=NCCN3)cc2)cc1` as the compound, how does the pKB read?
Its pKB is 8.7.

For `CC(C)Oc1ccc(Cc2ccc(NC3=NCCN3)cc2)cc1`, which pKB is on record?
The pKB was 8.8.

For `CCCOc1ccc(Cc2ccc(NC3=NCCN3)cc2)cc1`, which pKB is on record?
Its pKB is 8.8.

For `OCCOc1ccc(Cc2ccc(NC3=NCCN3)cc2)cc1`, which pKB is on record?
Its pKB is 8.

Which pKB does the source give for `CC(C)COc1ccc(Cc2ccc(NC3=NCCN3)cc2)cc1` here?
Its pKB is 8.8.

Which pKB does the source give for `CCCCOc1ccc(Cc2ccc(NC3=NCCN3)cc2)cc1` here?
The pKB was 9.

How did the pKB turn out when `COCCOc1ccc(Cc2ccc(NC3=NCCN3)cc2)cc1` was run?
Its pKB is 8.

Which pKB does the source give for `CCOc1ccc(Cc2ccc(NC3=NCCN3)cc2)cc1` here?
The pKB was 8.2.

`COc1ccc(Cc2ccc(NC3=NCCN3)cc2)cc1` was tested. Which pKB did it give?
The pKB was 7.7.

Which pKB does the source give for `c1cc(NC2=NCCN2)ccc1Cc1ccc(OC2CCOCC2)cc1` here?
Its pKB is 8.4.

system: Rattus norvegicus; test: Effective dose was determined for analgesic activity in rat on i.p. administration using acetic acid induced writhing assay; type: functional; conditions: ip

`CC(C)Oc1ccc(Cc2ccc(NC3=NCCN3)cc2)cc1` was tested. Which ED50 did it give?
The ED50 was 4 mg/kg.
